Values quoted from earlier work as cited in patent US20110092602A1 (priority 2008, published 2011).
Like-named read-outs stand apart in the source and are kept apart here.

What was measured:
[1] = pH 7
[2] = not given; remark: listed apart in the source

| Compound | n-octanol/water log partition coefficient (logP) [1] | solubility (ethanol) | solubility (water) | affinity of binding to μ-opioid receptors (μ-opioid receptors) | potency in μ-opioid binding relative to tramadol (μ-opioid receptors; animal models) | potency in producing analgesia relative to tramadol ([2]; animal models) | antagonism of analgesia by the opiate antagonist naloxone ([2]; several animals tests) |
| --- | --- | --- | --- | --- | --- | --- | --- |
| COc1cccc([C@]2(O)CCCC[C@H]2CN(C)C)c1.Cl (racemic) [Tramadol hydrochloride, (±)cis-2-[(dimethylamino)methyl]-1-(3-methoxyphenyl)cyclohexanol hydrochloride] | 1.35 | readily soluble | readily soluble | – | – | – | – |
| CN(C)C[C@H]1CCCC[C@]1(O)c1cccc(O)c1 [Example M1] | – | – | – | higher affinity | 200 times | up to 6 times | – |
| COc1cccc(C2(O)CCCCC2CN(C)C)c1 (centres unmarked) [Tramadol, 2-dimethylaminomethyl-1-(3-methoxyphenyl)cyclohexanol] | – | – | – | low affinity | – | – | only partially antagonized |
